In patent publication US4064137A (priority 1976, dated 1977):
“And” between values parts separate entries of the source, which are not always exact repeats. Equal entries are not always repeated. Where two headings read alike, the source gives them in different places.

What was measured:
Vaccinia virus = type: in vivo, mouse; conditions: for Number of pox / Inhibition percent: intraperitoneal; for Number of pox: 8th day after inoculation; for Inhibition percent: 8th day, vs control mouse
spleen cells of a mouse = type: cell-based

COC(=O)C1N2C(=O)C3(CC(C#N)=C(c4ccccc4)N3)C2SC1(C)C (stereo not drawn) [3'-Cyano-2'-phenyl-2'-pyrroline-5'-spiro-6-penicillanic acid methyl ester]
Number of pox (Vaccinia virus; 0.49 mg/kg × 4 times): 16.0 | Inhibition percent (Vaccinia virus; 0.49 mg/kg × 4 times): 34.7% | Number of pox (Vaccinia virus; 1.95 mg/kg × 4 times): 9.1 | Inhibition percent (Vaccinia virus; 1.95 mg/kg × 4 times): 62.9% | Number of pox (Vaccinia virus; 7.8 mg/kg × 4 times): 11.2 | Inhibition percent (Vaccinia virus; 7.8 mg/kg × 4 times): 54.3% | interferon inducibility (in words) (Vaccinia virus; conclusion after in vivo test): excellent interferon inducibility | Interferon titre (spleen cells of a mouse): 320 unit and 160 unit | units of interferon induced (spleen cells of a mouse): 320 units
